Key:
[1] = Hμrel Low Clearance Assay; assay type: in vitro ADME, human; set-up: % of Control (intrinsic clearance relative to the control compound): tested at 1 µM; details: HμRELhumanPool 96-well hepatic co-culture, human hepatic co-culture, 1 μM substrate, 0-72 hr incubation, control = geometric mean of 3 replicates
Protocol: (§1) The Hμrel Low Clearance Assay was performed to determine the stability of deuterated compounds described herein and calculate changes in clearance relative to the control compound (undeuterated compound) that has the following structure:
(§2) HμRELhumanPool™ 96-well hepatic co-culture plates were media changed and cells were allowed to acclimatize at 37° C. for 20 hr. HμREL® incubation media (serum free) and test compound diluted from a 1000×DMSO stock (final substrate concentration 1 μM; final DMSO concentration 0.1%) were added to the HμREL© 96-well co-culture system at a final cell number of 30,000 cells per well to initiate the reaction. The final incubation volume was 80 μL per time point and two control compounds were included for reference (ketoprofen and prednisolone). All clearance assessments were performed in singlicate with the exception of the undeuterated control compound, which was tested in duplicate on two separate days for a total of 4 replicates. Each compound was incubated for 0, 2, 6, 24, 48 and 72 hr. The reactions were terminated by transferring 60 μL of incubate to 180 μL acetonitrile containing internal standard at the appropriate time points. The crash plates were centrifuged at 3000 rpm at 4° C. for 20 min to precipitate residual protein. Following protein precipitation, sample supernatants were combined in cassettes of up to 4 compounds and analyzed using generic LCMS/MS conditions.
(§3) LC-MS/MS chromatograms were analyzed by peak area ratio (test article peak area/internal standard peak area) and natural log transformed, and plotted against time. The slope of the line was determined to calculate elimination rate constant. Subsequently, half-life (t1/2) and intrinsic clearance (CLint) were calculated using the following equations: […]
(§4) Average clearance of the control compound was determined by taking the geometric mean of 3 of the four replicates. The fourth replicate was excluded from the average determination as an outlier.

[2] = tested on: HμRELhumanPool 96-well hepatic co-culture; experiment: Hμrel Low Clearance Assay; assay type: in vitro ADME, human; set-up: % of Control (intrinsic clearance relative to the control compound): tested at 1 µM; details: for Half-Life: human hepatic co-culture, 1 μM substrate, 0-72 hr incubation; for % of Control (intrinsic clearance relative to the control compound): observed CLint divided by average CLint of undeuterated control compound
Protocol: as §1, §2, §3, §4

[3] = target: T1, Recombinant CYP3A4 Supersomes (Homo sapiens, UniProt P08684); experiment: Recombinant CYP3A4 Clearance Assay; assay type: in vitro ADME; details: for % of Control (intrinsic clearance relative to the control compound): observed CLint divided by average CLint of undeuterated control compound; for Half-Life / CLint: recombinant CYP3A4 50 pmol/mL, 1 μM substrate, NADPH; for Half-Life: 0-120 minutes; for CLint: control = geometric mean of 3 replicates
T1 construct: purchased
Protocol: The CYP3A4 Clearance Assay was performed to determine the stability of deuterated compounds described herein and calculate changes in clearance relative to the control compound (undeuterated compound) that has the following structure:
Recombinant CYP3A4 Supersomes were prepared in 100 mM potassium phosphate buffer (50 pmol/mL final recombinase) and 80 μL aliquots were delivered per well to 96-well reaction plates containing 10 μL/well stock working solution containing substrate at 10× final concentration in 0.1:9.9:90 DMSO:ACN:100 mM phosphate buffer. Final substrate concentration during incubation was 1 μM. Reaction mixtures were pre-incubated at 37° C. for 10 minutes, prior to addition of 10 μL/well of NADPH regenerating system to initiate the reaction (β-Nicotinamide adenine dinucleotide phosphate) or 100 mM phosphate as a buffer control.
Clearance assessments were performed for test compounds in singlicate except for the control compound, which was tested in triplicate. Incubations were maintained at 37° C. for 0, 5, 15, 30, 45, 60, 90, and 120 minutes (or 0 and 120 minutes for buffer control). The reactions were terminated with 3× volume of cold (4° C.) acetonitrile (ACN) containing 200 ng/mL tolbutamide and 200 ng/mL labetalol as internal standards (IS). The crash plates were centrifuged at 4000 rpm at 4° C. for 20 min to precipitate residual protein. Following protein precipitation, sample supernatants were harvested and 3× volume of HPLC grade water was added to each sample for chromatography purposes. Plates were sealed and shaken for 10 minutes prior to LC-MS/MS analysis using generic LCMS/MS conditions.
as §3
Average intrinsic clearance of the control compound was determined by taking the geometric mean of 3 replicates.

T1 sequence (P08684 whole entry): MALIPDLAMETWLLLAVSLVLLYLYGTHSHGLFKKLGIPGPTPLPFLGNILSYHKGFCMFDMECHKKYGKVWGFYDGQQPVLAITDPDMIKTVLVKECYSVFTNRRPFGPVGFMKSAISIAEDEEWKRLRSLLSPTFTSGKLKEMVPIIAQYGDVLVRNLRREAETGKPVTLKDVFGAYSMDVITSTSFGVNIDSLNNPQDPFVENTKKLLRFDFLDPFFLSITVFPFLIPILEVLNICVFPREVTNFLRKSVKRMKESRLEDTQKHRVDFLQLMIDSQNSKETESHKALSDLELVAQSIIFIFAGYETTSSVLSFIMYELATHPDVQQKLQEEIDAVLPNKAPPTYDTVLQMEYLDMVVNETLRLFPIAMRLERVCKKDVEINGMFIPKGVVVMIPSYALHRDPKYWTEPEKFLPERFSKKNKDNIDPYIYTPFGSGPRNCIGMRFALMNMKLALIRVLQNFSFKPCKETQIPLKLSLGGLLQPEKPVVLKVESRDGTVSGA

Structure (SMILES) | hepatocyte CLint at 1 μM ([1]; human) [µL/min/1e6 cells] | Half-Life [2] [min] | % of Control (intrinsic clearance relative to the control compound) [2] [%] | % of Control (intrinsic clearance relative to the control compound) [3] [%] | Half-Life [3] [min] | CLint [3] [µL/min/pmol] | hepatocyte CLint at 1 μM [1] [µL/min/1e6 cells]
[2H]C1([2H])CC(CNC(=O)c2cc(F)cc(Cl)c2)CC([2H])([2H])N1CC(=O)NC(C([2H])([2H])[2H])(C([2H])([2H])[2H])C([2H])([2H])[2H] [Compound 16, 3-chloro-5-fluoro-N-[[2,2,6,6-tetradeuterio-1-[2-oxo-2-[[2,2,2-trideuterio-1,1-bis(trideuteriomethyl)ethyl]amino]ethyl]-4-piperidyl]methyl]benzamide] |  | 1700 | 76.3 | 61.4 | 12.8 | 1.08 | 1.08
[2H]C([2H])([2H])C(C)(NC(=O)CN1C([2H])([2H])C([2H])([2H])C([2H])(CNC(=O)c2cc(F)cc(Cl)c2)C([2H])([2H])C1([2H])[2H])C([2H])([2H])[2H] [Compound 20, 3-chloro-5-fluoro-N-[[2,2,3,3,4,5,5,6,6-nonadeuterio-1-[2-oxo-2-[[2,2,2-trideuterio-1-methyl-1-(trideuteriomethyl)ethyl]amino]ethyl]-4-piperidyl]methyl]benzamide] | 0.803 | 2300 | 56.7 | 61.5 | 12.8 | 1.08 | 
[2H]C1([2H])CC(CNC(=O)c2cc(F)cc(Cl)c2)CC([2H])([2H])N1CC(=O)NC(C)(C)C([2H])([2H])[2H] [Compound 22, 3-chloro-5-fluoro-N-[[2,2,6,6-tetradeuterio-1-[2-oxo-2-[(2,2,2-trideuterio-1,1-dimethyl-ethyl)amino]ethyl]-4-piperidyl]methyl]benzamide] | 0.872 | 2120 | 62.6 | 87.5 | 9.0 | 1.54 | 
[2H]C1([2H])CN(CC(=O)NC(C)(C([2H])([2H])[2H])C([2H])([2H])[2H])CC([2H])([2H])C1CNC(=O)c1cc(F)cc(Cl)c1 [Compound 23, 3-chloro-5-fluoro-N-[[3,3,5,5-tetradeuterio-1-[2-oxo-2-[[2,2,2-trideuterio-1-methyl-1-(trideuteriomethyl)ethyl]amino]ethyl]-4-piperidyl]methyl]benzamide] | 0.908 | 2040 | 65.2 | 86.2 | 9.1 | 1.52 | 
CC(C)(C)NC(=O)CN1CCC(CNC(=O)c2cc(F)cc(Cl)c2)CC1 [Control, reference compound] | 1.42 | 1330 | 100 | 100 | 7.9 | 1.76 | 

The next lines start with results.

hepatocyte CLint at 1 μM ([1]; human) [µL/min/1e6 cells] | Half-Life [2] [min] | % of Control (intrinsic clearance relative to the control compound) [2] [%] | % of Control (intrinsic clearance relative to the control compound) [3] [%] | Half-Life [3] [min] | CLint [3] [µL/min/pmol] | Structure (SMILES) | hepatocyte CLint at 1 μM [1] [µL/min/1e6 cells]
1.35 | 1360 | 95.4 | 82.9 | 9.5 | 1.46 | [2H]C([2H])(C(=O)NC(C([2H])([2H])[2H])(C([2H])([2H])[2H])C([2H])([2H])[2H])N1CCC(CNC(=O)c2cc(F)cc(Cl)c2)CC1 [Compound 15, 3-chloro-N-[[1-[1,1-dideuterio-2-oxo-2-[[2,2,2-trideuterio-1,1-bis(trideuteriomethyl)ethyl]amino]ethyl]-4-piperidyl]methyl]-5-fluoro-benzamide] | 
1.18 | 1570 | 83.4 | 72.2 | 10.9 | 1.27 | [2H]C([2H])(C(=O)NC(C)(C([2H])([2H])[2H])C([2H])([2H])[2H])N1CCC(CNC(=O)c2cc(F)cc(Cl)c2)CC1 [Compound 17, 3-chloro-N-[[1-[1,1-dideuterio-2-oxo-2-[[2,2,2-trideuterio-1-methyl-1-(trideuteriomethyl)ethyl]amino]ethyl]-4-piperidyl]methyl]-5-fluoro-benzamide] | 
0.718 | 2580 | 51.5 | 62.2 | 12.7 | 1.09 | [2H]C1([2H])CC(CNC(=O)c2cc(F)cc(Cl)c2)CC([2H])([2H])N1CC(=O)NC(C)(C([2H])([2H])[2H])C([2H])([2H])[2H] [Compound 19, 3-chloro-5-fluoro-N-[[2,2,6,6-tetradeuterio-1-[2-oxo-2-[[2,2,2-trideuterio-1-methyl-1-(trideuteriomethyl)ethyl]amino]ethyl]-4-piperidyl]methyl]benzamide] | 
1.46 | 1270 | 103 | 94.4 | 8.3 | 1.66 | [2H]C([2H])(C(=O)NC(C)(C)C([2H])([2H])[2H])N1CCC(CNC(=O)c2cc(F)cc(Cl)c2)CC1 [Compound 21, 3-chloro-N-[[1-[1,1-dideuterio-2-oxo-2-[(2,2,2-trideuterio-1,1-dimethyl-ethyl)amino]ethyl]-4-piperidyl]methyl]-5-fluoro-benzamide] | 

— patent US20240025852A1, “T-TYPE CALCIUM CHANNEL MODULATORS AND METHODS OF USE THEREOF” (PRAXIS PRECISION MEDICINES, INC., priority 2020, published 2024)
